Experimental data taken from patent US20160102317A1, “PLANTS HAVING INCREASED TOLERANCE TO HERBICIDES” (BASF SE, priority 2013, published 2016).
“And” between values parts separate entries of the source, which are not always exact repeats. Identical values can stand only once.

Experiments:
[1] = target: T1, Hordeum HPPD (SEQ ID NO:2), wild-type (Hordeum vulgare, UniProt O48604, A164G/R146V/R147D/R148G); assay: HPPD activity assay (HGA by HPLC), wild-type enzyme characterization; assay type: biochemical
T1 construct: His (N); made in house; host or cells: E. coli BL21 (DE3)
T1 sequence (O48604 whole entry R146V/R147D/R148G/A164G): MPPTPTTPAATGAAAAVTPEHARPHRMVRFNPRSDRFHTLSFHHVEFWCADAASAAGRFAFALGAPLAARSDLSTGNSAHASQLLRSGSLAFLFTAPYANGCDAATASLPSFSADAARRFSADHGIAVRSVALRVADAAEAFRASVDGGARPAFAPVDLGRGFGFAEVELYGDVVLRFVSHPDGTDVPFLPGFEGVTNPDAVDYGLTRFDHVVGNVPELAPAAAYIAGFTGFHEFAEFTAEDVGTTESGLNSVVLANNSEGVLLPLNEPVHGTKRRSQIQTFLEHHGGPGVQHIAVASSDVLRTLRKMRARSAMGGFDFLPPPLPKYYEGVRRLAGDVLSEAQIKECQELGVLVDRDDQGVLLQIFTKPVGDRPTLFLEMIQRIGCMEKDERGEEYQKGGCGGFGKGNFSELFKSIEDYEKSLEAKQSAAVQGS
Protocol: (§1) HPPD produces homogentisic acid and CO2 from 4-hydroxyphenylpyruvate (4-HPP) and 02. The activity assay for HPPD is based on the analysis of homogentisic acid by reversed phase HPLC. The assay mixture can contain 150 mM potassium phosphate buffer pH 7.0, 50 mM L-ascorbic acid, 100 μM Catalase (Sigma-Aldrich), 1 μM FeSO4 and 0.2 units of purified HPPD enzyme in a total volume of 505 μl. 1 unit is defined as the amount of enzyme that is required to produce 1 nmol of HGA per minute at 20° C.
(§2) After a preincubation of 30 min the reaction is started by adding 4-HPP to a final concentration of 0.05 mM. The reaction is allowed to proceed for 45 min at room temperature. The reaction is stopped by the addition of 50 μl of 4.5 M phosphoric acid. The sample is filtered using a […] pore size PVDF filtration device.
(§3) 5 μl of the cleared sample is analyzed on an UPLC HSS T3 column (particle size 1.8 μm, dimensions 2.1×50 mm; Waters) by isocratic elution using 90% 20 mM NaH2PO4 pH 2.2, 10% methanol (v/v).
(§4) HGA is detected electrochemically at 750 mV (mode: DC; polarity: positive) and quantified by integrating peak areas (Empower software; Waters).
(§5) Inhibitors are dissolved in DMSO (dimethylsulfoxide) to a concentration of 0.5 mM. From this stock solution serial five-fold dilutions are prepared in DMSO, which are used in the assay. The respective inhibitor solution accounts for 1% of the assay volume. […] Activities are normalized by setting the uninhibited enzyme activity to 100%. IC50 values are calculated using non-linear regression.
Using methods which are described in the above examples or well known in the art, purified, recombinant wild-type HPPD enzymes are characterized with respect to their kinetic properties and sensitivity towards HPPD inhibiting herbicides. Apparent michaelis constants (Km) and maximal reaction velocities (Vmax) are calculated by non-linear regression with the software GraphPad Prism 5 (GraphPad Software, La Jolla, USA) using a substrate inhibition model. […] Weighted means (by standard error) of Km and IC50 values are calculated from at least three independent experiments.
(§6) Field performance of the HPPD enzyme, which is used as a herbicide tolerance trait, may depend not only on its lack of sensitivity towards HPPD inhibiting herbicides but also on its activity. To assess the potential performance of a herbicide tolerance trait a tolerance index (TI) is calculated using the following formula: […]
(§7) Easy comparison and ranking of each trait is enabled by normalizing tolerance indexes on Arabidopsis wild-type HPPD.

Picrophilus HPPD = assay: HPPD activity assay, tolerance index; assay type: biochemical, Picrophilus torridus; details: Table 12, normalized to reference SEQ ID NO:53
Protocol: as §1, §2, §3, §4
(§8) Inhibitors are dissolved in DMSO (dimethylsulfoxide) to a concentration of 0.5 mM. From this stock solution serial five-fold dilutions are prepared in DMSO, which are used in the assay. […] IC50 values are calculated using non-linear regression. […]

HPPD Seq ID 67 = assay: HPPD activity assay, tolerance index; assay type: biochemical, Zea mays; details: Table 12, normalized to reference SEQ ID NO:53
Protocol: as §1, §2, §3, §4, §8

HPPD Seq ID 69 = assay: HPPD activity assay, tolerance index; assay type: biochemical, Zea mays; details: Table 12, normalized to reference SEQ ID NO:53
Protocol: as §1, §2, §3, §4, §8

[2] = target: T2, Hordeum HPPD (SEQ ID: 2) G407C (Hordeum vulgare, UniProt O48604, A164G/G407C/R146V/R147D/R148G); assay: HPPD activity assay, in vitro characterization of HPPD mutants; assay type: biochemical; details: Table 16, Hordeum wild-type = 1
T2 construct: His (N); made in house; host or cells: E. coli BL21 (DE3)
T2 sequence (O48604 whole entry R146V/R147D/R148G/A164G/G407C): as the sequence (O48604 whole entry R146V/R147D/R148G/A164G) above, with G407C counted along it
Protocol: as §1, §2, §3, §4, §5
(§9) Purified, mutant HPPD enzymes are obtained by the methods described above. Dose response and kinetic measurements are carried out using the described HPPD activity assay. Apparent michaelis constants (Km) and maximal reaction velocities (Vmax) are calculated by non-linear regression with the software GraphPad Prism 5 (Graph Pad Software, La Jolla, USA) using a substrate inhibition model. […] Weighted means (by standard error) of Km and IC50 values are calculated from at least three independent experiments.
as §6, with “of the optimized HPPD enzyme,” for “of the HPPD enzyme,”, “herbicide tolerance trait may depend” for “herbicide tolerance trait, may depend”
as §7

[3] = target: T3, Hordeum HPPD (SEQ ID: 2) L320Q (Hordeum vulgare, UniProt O48604, A164G/L320Q/R146V/R147D/R148G); assay: as above; assay type: biochemical; details: Table 16, Hordeum wild-type = 1
T3 construct: His (N); made in house; host or cells: E. coli BL21 (DE3)
T3 sequence (O48604 whole entry R146V/R147D/R148G/A164G/L320Q): as the sequence (O48604 whole entry R146V/R147D/R148G/A164G) above, with L320Q counted along it
Protocol: as §1, §2, §3, §4, §5, §9
as §6, with “of the optimized HPPD enzyme,” for “of the HPPD enzyme,”, “herbicide tolerance trait may depend” for “herbicide tolerance trait, may depend”
as §7

[4] = target: T4, Hordeum HPPD (SEQ ID: 2) L353M, P321R, L320N (Hordeum vulgare, UniProt O48604, L320N/L353M/P321R); assay: as above; assay type: biochemical; details: Table 16, Hordeum wild-type = 1
T4 construct: His (N); made in house; host or cells: E. coli BL21 (DE3)
T4 sequence (O48604 whole entry R146V/R147D/R148G/A164G/L320N/P321R/L353M): as the sequence (O48604 whole entry R146V/R147D/R148G/A164G) above, with L320N, P321R, L353M counted along it
Protocol: as §1, §2, §3, §4, §5, §9
as §6, with “of the optimized HPPD enzyme,” for “of the HPPD enzyme,”, “herbicide tolerance trait may depend” for “herbicide tolerance trait, may depend”
as §7

[5] = target: T5, Hordeum HPPD (SEQ ID: 2) L353M, P321R, L320Q (Hordeum vulgare, UniProt O48604, L320Q/L353M/P321R); assay: as above; assay type: biochemical; details: Table 16, Hordeum wild-type = 1
T5 construct: His (N); made in house; host or cells: E. coli BL21 (DE3)
T5 sequence (O48604 whole entry R146V/R147D/R148G/A164G/L320Q/P321R/L353M): as the sequence (O48604 whole entry R146V/R147D/R148G/A164G) above, with L320Q, P321R, L353M counted along it
Protocol: as §1, §2, §3, §4, §5, §9
as §6, with “of the optimized HPPD enzyme,” for “of the HPPD enzyme,”, “herbicide tolerance trait may depend” for “herbicide tolerance trait, may depend”
as §7

[6] = target: T6, Hordeum HPPD (SEQ ID: 2) F377L (Hordeum vulgare, UniProt O48604, A164G/F377L/R146V/R147D/R148G); assay: as above; assay type: biochemical; details: Table 16, Hordeum wild-type = 1
T6 construct: His (N); made in house; host or cells: E. coli BL21 (DE3)
T6 sequence (O48604 whole entry R146V/R147D/R148G/A164G/F377L): as the sequence (O48604 whole entry R146V/R147D/R148G/A164G) above, with F377L counted along it
Protocol: as §1
After a preincubation of 30 min the reaction is started by adding 4-HPP to a final concentration of 0.05 mM. The reaction is allowed to proceed for 45 min at room temperature. The reaction is stopped by the addition of 50 μl of 4.5 M phosphoric acid. […]
as §3, §4
Inhibitors are dissolved in DMSO (dimethylsulfoxide) to a concentration of 0.5 mM. […] IC50 values are calculated using non-linear regression.
Purified, mutant HPPD enzymes are obtained by the methods described above. […] Weighted means (by standard error) of Km and IC50 values are calculated from at least three independent experiments. […]

[7] = Table 16, Hordeum HPPD variant Wild-type

SMILES	Ki [1] [nM]	TI Inhibitor 1 (normalized tolerance index) ([1]; Table 12, Hordeum HPPD, normalized to reference SEQ ID NO:53)	TI Inhibitor 1 (normalized tolerance index) [1, 7]	TI Inhibitor 1 (normalized tolerance index) (Picrophilus HPPD)	TI Inhibitor 1 (normalized tolerance index) (HPPD Seq ID 67)	TI Inhibitor 1 (normalized tolerance index) (HPPD Seq ID 69)	TI Inhibitor 1 (normalized tolerance index) [2]	TI Inhibitor 1 (normalized tolerance index) [3]	TI Inhibitor 1 (normalized tolerance index) [4]	TI Inhibitor 1 (normalized tolerance index) [5]	TI Inhibitor 2 (normalized tolerance index) [1, 7]	TI Inhibitor 2 (normalized tolerance index) [3]	TI Inhibitor 2 (normalized tolerance index) [4]	TI Inhibitor 2 (normalized tolerance index) [5]	TI Inhibitor 2 (normalized tolerance index) [6]
COc1no[nH]/c1=N/C(=O)c1ccc2c(c1Cl)S(=O)(=O)CCC2(C)C [Inhibitor 1, (NE)-8-chloro-N-(4-methoxy-1,2,5-oxadiazol-3-ylidene)-4,4-dimethyl-1,1-dioxo-2,3-dihydrothiochromene-7-carboxamide]	38	0.9	1	0.4	107.3	13.2	3.3	0.1	0.2	1.2					
Cc1c(C(=O)Nc2nnnn2C)ccc2c1C(=O)C(C)(C)CS2(=O)=O [Inhibitor 2, 3,3,5-trimethyl-N-(1-methyltetrazol-5-yl)-1,1,4-trioxo-2H-thiochromene-6-carboxamide]											1	1.4	3.5	3.5 and 3.4	4.6
